Converted amounts (≈) assume the structure as drawn. Read-outs that look alike come from different tables or passages of the source.
Tests used:
Type in all cases: cell-based
[1] = tested on: Enterobacter aerogenes (Ea); assay: Minimum inhibitory concentration (MIC) in nutrient agar, Enterobacter aerogenes; conditions: Klebsiella aerogenes
Summary of the method: (§1)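 Test compound, as a 1% acetone–water solution, was mixed into molten nutrient agar (pH 6.8 or pH 8.2) at 48° C to final levels of 500 down to 1.0 ppm. Plates were dried 24 h, spot-inoculated with 10^8 CFU/mL suspensions of 24-h cultures, and incubated 48 h at 30° C. MIC was the lowest level preventing growth.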

[2] = tested on: Proteus vulgaris (Pv); assay: Minimum inhibitory concentration (MIC) in nutrient agar, Proteus vulgaris
Summary of the method: as §1

[3] = tested on: Pseudomonas aeruginosa (PRD-10); assay: Minimum inhibitory concentration (MIC) in nutrient agar, Pseudomonas aeruginosa PRD-10
Summary of the method: as §1

[4] = tested on: Aureobasidium pullulan (Ap); assay: Minimum inhibitory concentration (MIC) in malt yeast agar, Aureobasidium pullulan
Summary of the method: (§2)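 Agar dilution: test compound from a 1% acetone/water solution was mixed into malt yeast agar (pH 5.5) at 48 °C to final […], 25, 10, 5, 2.5, 1.0 and zero ppm. Plates dried 24 h, were replicator-inoculated with 1:9 saline-diluted suspensions of 7-day 30 °C cultures, and were read after 72 h (fungi) or 48 h (yeast) at 30 °C.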

[5] = tested on: Fusarium oxysporum (Fo); assay: Minimum inhibitory concentration (MIC) in malt yeast agar, Fusarium oxysporum
Summary of the method: as §2

[6] = tested on: Aspergillus niger (An); assay: Minimum inhibitory concentration (MIC) in malt yeast agar, Aspergillus niger; conditions: 72 h, pH 5.5, read-out: Minimum Inhibitory Concentration, An
Summary of the method: as §2

[7] = tested on: Penicillium chrysogenum (Pc); assay: Minimum inhibitory concentration (MIC) in malt yeast agar, Penicillium chrysogenum; conditions: 72 h, pH 5.5, read-out: Minimum Inhibitory Concentration, PC
Summary of the method: as §2

[8] = 48 h, pH 8.2, read-out: Minimum Inhibitory Concentration, Ea
[9] = pH 6.8, nutrient agar, 30° C., 48 hours, read-out: Minimum Inhibitory Concentration, Pv
[10] = 48 h, pH 8.2, read-out: Minimum Inhibitory Concentration, PRD

N#CSc1nsnc1-c1ccccc1 [Example I, 4-Phenyl-3-thiocyanato-1,2,5-thiadiazole]
MIC [1, 8]: 500 µg/mL (≈ 2280 µM) | MIC ([1]; pH 6.8, nutrient agar, 30° C., 48 hours, read-out: Minimum Inhibitory Concentration, Ea): 100 µg/mL (≈ 456 µM) | MIC ([2]; 48 h, pH 8.2, read-out: Minimum Inhibitory Concentration, Pv): 500 µg/mL (≈ 2280 µM) | MIC [2, 9]: 50 µg/mL (≈ 228 µM) | MIC ([3]; 48 h, pH 6.8, read-out: Minimum Inhibitory Concentration, PRD): > 500 µg/mL | MIC [3, 10]: > 500 µg/mL | MIC ([4]; pH 5.5, malt yeast agar, 30° C., read-out: Minimum Inhibitory Concentration, Ap): < 1 µg/mL | MIC ([5]; pH 5.5, malt yeast agar, 30° C., 72 hours for fungi, read-out: Minimum Inhibitory Concentration, Fo): 2.5 µg/mL (≈ 11.4 µM)

N#CSCSc1nsnc1-c1ccccc1 [Example XVI, 4-Phenyl-3-thiocyanato-methylthio-1,2,5-thiadiazole]
MIC ([1]; 48 h, pH 6.8, read-out: Minimum Inhibitory Concentration, Ea): 50 µg/mL (≈ 188 µM) | MIC [1, 8]: 500 µg/mL (≈ 1880 µM) | MIC [6]: 2.5 µg/mL (≈ 9.42 µM) | MIC [2, 9]: 50 µg/mL (≈ 188 µM) | MIC ([2]; pH 8.2, nutrient agar, 30° C., 48 hours, read-out: Minimum Inhibitory Concentration, Pv): 250 µg/mL (≈ 942 µM) | MIC [3, 10]: 50 µg/mL (≈ 188 µM) | MIC ([3]; pH 6.8, nutrient agar, 30° C., 48 hours, read-out: Minimum Inhibitory Concentration, PRD): 25 µg/mL (≈ 94.2 µM) | MIC ([4]; pH 5.5, read-out: Minimum Inhibitory Concentration, Ap): 2.5 µg/mL (≈ 9.42 µM) | MIC ([5]; 72 h, pH 5.5, read-out: Minimum Inhibitory Concentration, Fo): 5 µg/mL (≈ 18.8 µM) | MIC [7]: 2.5 µg/mL (≈ 9.42 µM)

From patent publication US5488060A, “Substituted thiadiazoles, compositions containing them and their use as antimicrobial and marine antifouling agents” (The Dow Chemical Company, priority 1994, dated 1996)
